# Laboratory results taken from paper PMC7690448, “Generation of a hTERT-Immortalized Human Sertoli Cell Model to Study Transporter Dynamics at the Blood-Testis Barrier” (Pharmaceutics, 2020).
# Target: T1, ENT1 (Homo sapiens, UniProt Q99808)
# T1 construct: gene SLC29A1
# T1 sequence (Q99808 2-456): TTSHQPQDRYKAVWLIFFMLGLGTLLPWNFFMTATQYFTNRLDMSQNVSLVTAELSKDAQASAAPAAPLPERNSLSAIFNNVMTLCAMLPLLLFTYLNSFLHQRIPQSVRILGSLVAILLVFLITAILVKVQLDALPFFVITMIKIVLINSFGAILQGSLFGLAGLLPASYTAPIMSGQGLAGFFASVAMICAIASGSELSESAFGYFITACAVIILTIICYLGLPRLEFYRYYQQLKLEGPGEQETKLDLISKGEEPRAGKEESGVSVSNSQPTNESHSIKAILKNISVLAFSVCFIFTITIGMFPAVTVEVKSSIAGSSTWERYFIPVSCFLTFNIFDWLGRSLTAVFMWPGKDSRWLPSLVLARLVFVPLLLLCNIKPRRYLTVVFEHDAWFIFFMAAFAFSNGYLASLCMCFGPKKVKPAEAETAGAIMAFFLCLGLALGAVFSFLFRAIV
# Assay: NBMPR-sensitive [3H] uridine uptake in primary human Sertoli cells and hT-SerCs (endogenous ENT1)
# Type: cell-based
compound,measurement,value
O=c1ccn([C@@H]2O[C@H](CO)[C@@H](O)[C@H]2O)c(=O)[nH]1 [uridine],NBMPR-sensitive [3H] uridine uptake in primary human Sertoli cells and hT-SerCs,These data suggest that uridine uptake into both cells is primarily mediated by ENT1 with minimal contribution by ENT2.
